Like-named read-outs stand apart in the source and are kept apart here.
Experiments:
[1] = system: SK-MEL-28
[2] = system: HL-60(TB); test: cells; settings: Homo sapiens
[3] = system: K-562
[4] = system: HL-60(TB)
[5] = system: HS 578T
[6] = system: SR
[7] = system: MOLT-4; test: cells; settings: Homo sapiens
[8] = system: 60 different human tumor cell lines (the NCI 60); settings: CCRF-CEM; HL-60(TB); K-562; MOLT-4; RPMI-8226; SR; A549/ATCC; HOP-92; NCI-H460; HCT-116; HCT-15; HT29; SF-268; SF-295; U251; LOX IMVI; SK-MEL-28; SK-MEL-5; IGROV1; OVCAR-3; OVCAR-8; A498; RXF393; MCF7; HS578T
[9] = system: K-562; test: cells; settings: Homo sapiens
[10] = system: SW-620
[11] = system: HS 578T; test: cells; settings: Homo sapiens
[12] = system: MOLT-4
[13] = system: SR; test: cells; settings: Homo sapiens
[14] = system: MDA-MB-468; test: NCI 60 in vitro screen (SRB), Breast Cancer; type: cell-based, human
Method: Mean ODtzero=The average of optical density measurements SRB-derived color just before exposure of cells to the test compound. Mean ODtest=The average of optical density measurement of SRB-derived color after 48 hours exposure of cells to the test compound. Mean ODctrl=The average of optical density measurements of SRB-derived color after 48 hours with no exposure of cells to the test compound.

[15] = system: PC-3

For `CNC(=O)NC[C@H]1O[C@@H](n2cnc3c(NC(=O)Nc4ccccc4)ncnc32)[C@H](O[Si](C)(C)C(C)(C)C)[C@@H]1CC(=O)N(C)OC` [Compound 13, 2′-O-(tert-Butyldimethylsilyl)-3′,5′-dideoxy-3′-[(N-methoxy-N-methylcarboxamido)methyl]-5′-[(N-methylcarbamoyl)amino]-N^6-(N-phenylcarbamoyl)adenosine], the TGI [1] was >1.00E−4 Molar, the “Percent Growth” value ([1]; Log10 Concentration −4.0) was 27% and the “Percent Growth” value ([1]; Log10 Concentration −5.0) was 44%. The “Percent Growth” value ([1]; Log10 Concentration −6.0) was 101%, the “Percent Growth” value ([1]; Log10 Concentration −7.0) was 106% and the “Percent Growth” value ([1]; Log10 Concentration −8.0) was 97%. The GI50 ([2]; HL-60) was 1.81 µM, the CC50 ([2]; HL-60, read-out: LC50) was 16.4 µM and the TGI [3] was >1.00E−4 Molar. The “Percent Growth” value ([3]; Log10 Concentration −4.0) was 24%, the “Percent Growth” value ([3]; Log10 Concentration −5.0) was 17% and the “Percent Growth” value ([3]; Log10 Concentration −6.0) was 82%. The “Percent Growth” value ([3]; Log10 Concentration −7.0) was 95%, the “Percent Growth” value ([3]; Log10 Concentration −8.0) was 95% and the TGI [4] was 4.34E−6 Molar. For the same molecule, the “Percent Growth” value ([4]; Log10 Concentration −4.0) was −58%, the “Percent Growth” value ([4]; Log10 Concentration −5.0) was −48% and the “Percent Growth” value ([4]; Log10 Concentration −6.0) was 84%. For the same molecule, the “Percent Growth” value ([4]; Log10 Concentration −7.0) was 86%, the “Percent Growth” value ([4]; Log10 Concentration −8.0) was 95% and the TGI [5] was >1.00E−4 Molar. The “Percent Growth” value ([5]; Log10 Concentration −4.0) was 12%, the “Percent Growth” value ([5]; Log10 Concentration −5.0) was 40% and the “Percent Growth” value ([5]; Log10 Concentration −6.0) was 82%. For the same molecule, the “Percent Growth” value ([5]; Log10 Concentration −7.0) was 98%, the “Percent Growth” value ([5]; Log10 Concentration −8.0) was 98% and the TGI [6] was 3.46E−6 Molar. For the same molecule, the “Percent Growth” value ([6]; Log10 Concentration −4.0) was −56%, the “Percent Growth” value ([6]; Log10 Concentration −5.0) was −53% and the “Percent Growth” value ([6]; Log10 Concentration −6.0) was 62%. For the same molecule, the “Percent Growth” value ([6]; Log10 Concentration −7.0) was 89%, the “Percent Growth” value ([6]; Log10 Concentration −8.0) was 85% and the GI50 ([7]; MOLT-4) was 2.23 µM. For the same molecule, the CC50 ([7]; MOLT-4, read-out: LC50) was > 100 µM, the “GI50 values (potent anticancer activities)” value [8] was “low micromolar” and the GI50 ([9]; K562) was 3.12 µM. For the same molecule, the CC50 ([9]; K562, read-out: LC50) was > 100 µM, the TGI [10] was >1.00E−4 Molar and the “Percent Growth” value ([10]; Log10 Concentration −4.0) was 50%. For the same molecule, the “Percent Growth” value ([10]; Log10 Concentration −5.0) was 65%, the “Percent Growth” value ([10]; Log10 Concentration −6.0) was 93% and the “Percent Growth” value ([10]; Log10 Concentration −7.0) was 102%. For the same molecule, the “Percent Growth” value ([10]; Log10 Concentration −8.0) was 99%, the GI50 [11] was 5.79 µM and the CC50 ([11]; read-out: LC50) was > 100 µM. The TGI [12] was 9.36E−6 Molar, the “Percent Growth” value ([12]; Log10 Concentration −4.0) was −5% and the “Percent Growth” value ([12]; Log10 Concentration −5.0) was −2%. The “Percent Growth” value ([12]; Log10 Concentration −6.0) was 78%, the “Percent Growth” value ([12]; Log10 Concentration −7.0) was 90% and the “Percent Growth” value ([12]; Log10 Concentration −8.0) was 96%. The GI50 [13] was 1.27 µM and the CC50 ([13]; read-out: LC50) was 9.43 µM.

`CNC(=O)NC[C@H]1O[C@@H](n2cnc3c(NC(=O)Nc4ccccc4)ncnc32)C(O[Si](C)(C)C(C)(C)C)[C@H]1O[Si](C)(C)C(C)(C)C` (stereo partly shown) [Compound 25, 2′,3′-Bis-O-(tert-butyldimethylsilyl)-5-deoxy-5′-[(N-methylcarbamoyl)amino]-N^6-(N-phenylcarbamoyl)adenosine] was tested, and the TGI [14] was 1.39E−5 Molar, the GI50 ([14]; Homo sapiens) was 3.35 µM and the IC50 ([14]; Homo sapiens) was > 100 µM. For the same molecule, the “Percent Growth” value ([14]; Log10 Concentration −4.0 Molar) was −35%, the “Percent Growth” value ([14]; Log10 Concentration −5.0 Molar) was 5% and the “Percent Growth” value ([14]; Log10 Concentration −6.0 Molar) was 99%. The “Percent Growth” value ([14]; Log10 Concentration −7.0 Molar) was 104%, the “Percent Growth” value ([14]; Log10 Concentration −8.0 Molar) was 101% and the TGI [15] was >1.00E−4 Molar. For the same molecule, the “Percent Growth” value ([15]; Log10 Concentration −4.0, Molar) was 4%, the “Percent Growth” value ([15]; Log10 Concentration −5.0, Molar) was 6% and the “Percent Growth” value ([15]; Log10 Concentration −6.0, Molar) was 83%. The “Percent Growth” value ([15]; Log10 Concentration −7.0, Molar) was 91% and the “Percent Growth” value ([15]; Log10 Concentration −8.0, Molar) was 93%.
